Read-outs that look alike come from different tables or passages of the source.
Key:
[1] = target: T1, PhoP (Mycobacterium tuberculosis, UniProt P71814, D106C); type: binding
[2] = target: T1, PhoP; type: binding; remark: listed apart in the source

Compound	IC50 [1] [µM]	IC50 [2] [µM]
NCGC00161636	15.5	
CCCCCCCCCC(CC)c1ccc(S(=O)(=O)O)cc1 (centres unmarked) [NCGC00244580]		35.8

From article PMC5542402 (Combinatorial chemistry & high throughput screening, 2016)
